Experimental data taken from ChEMBL document CHEMBL4402592, “Targeting Endoplasmic Reticulum α-Glucosidase I with a Single-Dose Iminosugar Treatment Protects against Lethal Influenza and Dengue Virus Infections” (J Med Chem, 2020).

Assays:
Format in all cases: functional
Influenza A virus [1] = experiment: Antiviral activity against Influenza A virus (A/Texas/36/1991(H1N1)) infected in BALB/c mouse assessed as animal survival at 250 mg/kg, po administered via gavage as three doses at 8, 32 and 56 hrs post infection (reference value: 0%)
dengue virus type 2 = experiment: Antiviral activity against Dengue virus 2 S221 infected in DENV antibody dependent enhancement AG129 mouse model assessed as reduction in viremia at 750 mg/kg, po administered via gavage as single dose at 36 hrs post infection measured within 8 hrs by qRT-PCR analysis
Influenza A virus [2] = experiment: Antiviral activity against Influenza A virus (A/Texas/36/1991(H1N1)) infected in BALB/c mouse assessed as median death time at 500 mg/kg, po administered via gavage as single dose at 24 hrs post infection (reference value: 8.5 days)
Influenza A virus [3] = experiment: Antiviral activity against Influenza A virus (A/Texas/36/1991(H1N1)) infected in BALB/c mouse assessed as median death time at 750 mg/kg, po administered via gavage as two doses at 8 hrs and 32 hrs post infection (reference value: 9 days)

## COCCCCCCCCCN1C[C@H](O)[C@@H](O)[C@H](O)[C@H]1CO.Cl
Influenza A virus [1]
  survival at 250 mg/kg: 0%
Dengue virus type 2
  log(activity): >1
Influenza A virus [2]
  Time: 11 days
Influenza A virus [3]
  Time: >14 days
